Where only a bound is given, the exact number is not on record here.

Here are results for 63 compounds from US20240327334A1, “Covalent Inhibitors As Antiviral Agents” (Enanta Pharmaceuticals, Inc., priority 2022, published 2024).

The subject of one experiment is SARS-CoV-2 replicon. The experiment can be described thus: microbe, parasite or virus in culture. As to conditions: Severe acute respiratory syndrome coronavirus 2, Huh-7. The format is cell-based.
For experiment [1], the target named is SARS-CoV-2 Papain-like (PLpro) protease (Severe acute respiratory syndrome coronavirus 2, UniProt P0DTD1). The experiment can be described thus: SARS-CoV-2 Papain-like (PLpro) protease biochemical enzyme inhibition assay (ubiquitin-fluorophore substrate, Ub-R110). The note with it: Ub-R110 substrate; run in duplicate; read-out: PLpro IC50.

The compound `N#CN1CC[C@@H](C(=O)NCc2ccccc2C(=O)NC2(c3cc(Br)cc4ccccc34)CC2)C1` [Example 416] gave a 50% effective concentration (EC50) in the experiment on SARS-CoV-2 replicon below 1000 nM.
Take `C#C[C@H](C)NC(=O)C(=O)NCc1ccccc1C(=O)NC1(c2ccc3ccccc3c2)CC1` [Example 164]: the IC50 in experiment [1] was 1000 to 10000 nM.
Consider `N#CCNC(=O)C(=O)NCc1ccccc1C(=O)NC1(c2ccc(F)c(OC(F)(F)F)c2)CC1` [Example 309], for which the half-inhibitory concentration (IC50) in experiment [1] was in the range of 1000 to 10000 nM.
As for `N#CCNC(=O)C(=O)NCc1ccccc1C(=O)NC1(c2cc(C(F)(F)F)ccc2F)CC1` [Example 371], the IC50 in experiment [1] fell in the range of 1000 to 10000 nM.
Still for that read-out and setting: for `O=C(NCC#Cc1nccs1)C(=O)NCc1ccccc1C(=O)NC1(c2cccc3cnccc23)CC1` [Example 391] the value was below 100 nM.
Still for that read-out and setting: for `N#CN1CC(CNC(=O)C(=O)NCc2ccccc2C(=O)NC2(c3ccc4ccccc4c3)CC2)C1` [Example 430] the value was 100 to 1000 nM; for `C#CCNC(=O)C(=O)NCc1ccccc1C(=O)NC1(c2cccc3c2ccn3C)CC1` [Example 530], 100 to 1000 nM.
`C=CC(=O)NNC(=O)C(=O)Nc1ccccc1C(=O)N[C@H](C)c1cccc2ccccc12` [Example 27]: in experiment [1], the IC50 is above 10000 nM.
As for `O=C(NC/C=C/c1cnccn1)C(=O)NCc1ccccc1C(=O)NC1(c2ccc3ccccc3c2)CC1` [Example 580], in experiment [1], the half-maximal inhibitory concentration (IC50) is 100 to 1000 nM.
In the case of `O=C(C#CCNC(=O)C(=O)NCc1ccccc1C(=O)NC1(c2ccc3ccccc3c2)CC1)Nc1ccccc1` [Example 521], the half-maximal inhibitory concentration (IC50) in experiment [1] lay in the range of 100 to 1000 nM.
As for `CC(C)[C@@H](C#Cc1ncccc1C(F)(F)F)NC(=O)C(=O)NCc1ccccc1C(=O)NC1(c2ccc3nn(C)cc3c2)CC1` [Example 205], in experiment [1], the IC50 is above 10000 nM.
In the case of `O=C(C#CCNC(=O)C(=O)NCc1ccccc1C(=O)NC1(c2cc(-c3cnn(C4CC4)c3)cc(C(F)(F)F)c2)CC1)NC1CC1` [Example 534], in experiment [1], the IC50 was 100 to 1000 nM.
Turning to `N#CCCCNC(=O)C(=O)NCc1ccccc1C(=O)NC1(c2ccc3ccccc3c2)CC1` [Example 403], in experiment [1], the IC50 lay in the range of 1000 to 10000 nM.
As to `C[C@@H](NC(=O)c1ccccc1CNC(=O)C(=O)NCC#N)c1cc(-c2ccsc2)cc(C(F)(F)F)c1` [Example 466], in experiment [1], the half-maximal inhibitory concentration (IC50) was above 10000 nM.
Still for that read-out and setting: the same measure for `COC(=O)/C=C/CNC(=O)C(=O)NCc1ccccc1C(=O)N[C@H](C)c1cc(-c2ccccc2)cc(C(F)(F)F)c1` [Example 35]: below 100 nM; for `CC(C)Oc1cccnc1C#C[C@H](C)NC(=O)C(=O)NCc1ccccc1C(=O)NC1(c2cc(F)cc(-c3cnn(C4CC4)c3)c2)CC1` [Example 268]: 100 to 1000 nM.
As for `COC(=O)/C=C/C1(NC(=O)C(=O)NCc2ccccc2C(=O)N[C@H](C)c2cccc3ccccc23)CC1` [Example 36], the IC50 in experiment [1] was above 10000 nM.
Same read-out and setting: for `CC(C)(C)OC(=O)N1CCC[C@@H]1CNC(=O)C(=O)NCc1ccccc1C(=O)NC1(c2cccc3ccccc23)CC1` [Example 506] the value was above 10000 nM; for `CCCOC(=O)/C=C/CNC(=O)C(=O)NCc1ccccc1C(=O)NC1(c2cccc3ccccc23)CC1` [Example 552], 100 to 1000 nM; for `O=C(NC/C=C\c1nccs1)C(=O)NCc1ccccc1C(=O)NC1(c2ccc3ccccc3c2)CC1` [Example 401], 1000 to 10000 nM.
Regarding `NC(=O)N1CC[C@H](CNC(=O)C(=O)NCc2ccccc2C(=O)NC2(c3cccc4ccccc34)CC2)C1` [Example 503], the concentration for half-maximal inhibition (IC50) in experiment [1] fell in the range of 1000 to 10000 nM.
On to `N#CCNC(=O)C(=O)NCc1ccccc1C(=O)NC1(c2cc(-c3cn(C4CC4)nn3)cc(C(F)(F)F)c2)CC1` [Example 60], for which the IC50 in experiment [1] lay within 100 to 1000 nM.
Still for that read-out and setting: the same measure for `COc1cc(C2(NC(=O)c3ccccc3CNC(=O)C(=O)NCC(O)C(F)(F)F)CC2)cc2cn(C3CC3)nc12` (stereo not drawn) [Example 513]: above 10000 nM; for `C#CCNC(=O)C(=O)NCc1ccccc1C(=O)NC1(c2ccc3ncccc3c2)CC1` [Example 388]: below 100 nM; for `C[C@@H](NC(=O)c1ccccc1CNC(=O)C(=O)NCCC#N)c1cccc2ccccc12` [Example 5]: above 10000 nM.
On to `N#CCNC(=O)C(=O)NCCc1ccccc1C(=O)NC1(c2ccc3ccccc3c2)CC1` [Example 372], for which, in experiment [1], the IC50 was above 10000 nM.
Regarding `N#CCNC(=O)C(=O)NCc1ccccc1C(=O)NC1(c2cc(C(F)(F)F)cc(C(F)(F)F)c2)CC1` [Example 45], the half-inhibitory concentration (IC50) in experiment [1] was in the range of 1000 to 10000 nM.
Same read-out and setting: for `Cc1nnc(-c2cc(-c3nnc(C)o3)cc(C3(NC(=O)c4ccccc4CNC(=O)C(=O)NCC#N)CC3)c2)o1` [Example 478] the value was 100 to 1000 nM; for `C[C@@H](NC(=O)c1ccccc1CNC(=O)C(=O)NC/C=C/C(=O)O)c1cccc2ccccc12` [Example 14], 1000 to 10000 nM.
Consider `COC(=O)/C=C/CNC(=O)C(=O)N(C)Cc1ccccc1C(=O)N[C@H](C)c1cccc2ccccc12` [Example 547], for which the IC50 in experiment [1] is above 10000 nM.
As for `N#CCNC(=O)C(=O)NCc1c(Cl)cccc1C(=O)NC1(c2cc(-c3cnn(C4CC4)c3)cc3ccccc23)CC1` [Example 291], the IC50 in experiment [1] was above 10000 nM.
As for `N#CCNC(=O)C(=O)NCc1ccccc1C(=O)NC1(c2cccc(-c3ccc(F)cc3)c2F)CC1` [Example 379], the 50% inhibitory concentration (IC50) in experiment [1] is below 100 nM.
Same read-out and setting: the same measure for `N#CCNC(=O)C(=O)NCc1ccccc1C(=O)NC1(c2ccc3ccccc3c2)CC1` [Example 39]: 100 to 1000 nM.
For the compound `Cc1nnc(-c2cc(Cl)cc(C3(NC(=O)c4ccccc4CNC(=O)C(=O)NCC#N)CC3)c2)o1` [Example 483], the IC50 in experiment [1] is 100 to 1000 nM.
The same measure, in the same setting: the same measure for `N#CCNC(=O)C(=O)NCc1ccccc1C(=O)NC1(c2cc(Oc3ccccc3)cc(C(F)(F)F)c2)CC1` [Example 68]: above 10000 nM.
Turning to `COC(=O)/C=C/CNC(=O)C(=O)NCC1C[C@@H]1C(=O)N[C@H](C)c1cccc2ccccc12` (stereo partly drawn) [Example 20], the concentration for half-maximal inhibition (IC50) in experiment [1] fell in the range of 1000 to 10000 nM.
`C[C@@H](C#Cc1ccc([S+](C)[O-])cc1)NC(=O)C(=O)NCc1ccccc1C(=O)NC1(c2ccc3nn(C)cc3c2)CC1` (stereo partly drawn) [Example 111]: in experiment [1], the IC50 is 1000 to 10000 nM.
In the case of `O=C(NC/C=C/c1nccs1)C(=O)NCc1ccccc1C(=O)NC1(c2ccc3ccccc3c2)CC1` [Example 583], the IC50 in experiment [1] lay within 100 to 1000 nM.
As to `C[C@@H](C#Cc1ccc(C#N)cc1OC(F)(F)F)NC(=O)C(=O)NCc1ccccc1C(=O)NC1(c2ccc3ccccc3c2)CC1` [Example 208], the IC50 in experiment [1] was above 10000 nM.
On to `CC(NC(=O)C(=O)NCC#N)c1ccccc1C(=O)N[C@H](C)c1cccc2ccccc12` (stereo partly drawn) [Example 50], for which the concentration for half-maximal inhibition (IC50) in experiment [1] is above 10000 nM.
Same read-out and setting: the same measure for `COc1ccc(C#C[C@H](C)NC(=O)C(=O)NCc2ccccc2C(=O)NC2(c3ccc4nn(C)cc4c3)CC2)c(C#N)c1` [Example 112]: below 100 nM; for `C#CCNC(=O)C(=O)NCc1ccccc1C(=O)NC1(c2cccc3ccccc23)COC1` [Example 102]: above 10000 nM; for `C[C@@H](NC(=O)c1ccccc1CNC(=O)C(=O)NCC/C=C/P(=O)(O)O)c1cccc2ccccc12` [Example 13]: above 10000 nM.
As for `N#CCNC(=O)C(=O)NCc1ccccc1C(=O)NC1(c2cc(Br)cc3ccccc23)CC1` [Example 44], the IC50 in experiment [1] is below 100 nM.
For `N#CN1CC(NC(=O)C(=O)NCc2ccccc2C(=O)NC2(c3cccc4ccccc34)CC2)C1` [Example 436, N1-(1-cyanoazetidin-3-yl)-N2-(2-((1-(naphthalen-1-yl)cyclopropyl)carbamoyl)benzyl)oxalamide], in experiment [1], the IC50 is 100 to 1000 nM.
Take `COC(=O)/C=C/CNC(=O)C(=O)NCc1ncoc1C(=O)N[C@H](C)c1cccc2ccccc12` [Example 364]: the half-maximal inhibitory concentration (IC50) in experiment [1] was above 10000 nM.
Still for that read-out and setting: the same measure for `N#CCNC(=O)C(=O)NCc1ccccc1C(=O)NC1(c2ccc(Br)cc2)CC1` [Example 544]: 1000 to 10000 nM; for `C[C@@H](NC(=O)c1ccccc1CNC(=O)C(=O)N1CCC(=O)N1)c1cccc2ccccc12` [Example 23]: above 10000 nM; for `COC(=O)/C=C/CCNC(=O)C(=O)Nc1ccccc1C(=O)N[C@H](C)c1cccc2ccccc12` [Example 10]: above 10000 nM.
Still for that read-out and setting: for `CC(C)(C)OC(=O)NNC(=O)/C=C/CNC(=O)C(=O)NCc1ccccc1C(=O)NC1(c2cccc3ccccc23)CC1` [Example 548] the value was 100 to 1000 nM; for `O=C(NCC#Cc1ccc(C(F)(F)F)s1)C(=O)NCc1ccccc1C(=O)NC1(c2ccc3ccccc3c2)CC1` [Example 89], above 10000 nM.
For the compound `N#CCNC(=O)C(=O)NCc1ccc(C(=O)NC2CC2)cc1C(=O)NC1(c2ccc(F)c3ccccc23)CC1` [Example 116], the IC50 in experiment [1] is below 100 nM.
In the case of `N#CCNC(=O)C(=O)NCc1ccccc1C(=O)NC1(c2ccnc3ccccc23)CC1` [Example 407], the half-maximal inhibitory concentration (IC50) in experiment [1] was below 100 nM.
On to `COC(=O)/C=C/CNC(=O)C(=O)NCc1c(F)cc(F)cc1C(=O)N[C@H](C)c1cccc2ccccc12` [Example 30], for which, in experiment [1], the IC50 fell in the range of 100 to 1000 nM.
For the compound `Cc1cccc(C)c1NC(=O)/C=C/CNC(=O)C(=O)NCc1ccccc1C(=O)NC1(c2cccc3ccccc23)CC1` [Example 562], the IC50 in experiment [1] was above 10000 nM.
For `CC(C)(C)OC(=O)N1CC[C@@H](CNC(=O)C(=O)NCc2ccccc2C(=O)NC2(c3cccc4ccccc34)CC2)C1` [Example 507], in experiment [1], the concentration for half-maximal inhibition (IC50) was above 10000 nM.
As for `C#CCNC(=O)C(=O)NCc1ccccc1C(=O)NC1(c2cc(Oc3cccc(C(F)(F)F)c3)cc(C(F)(F)F)c2)CC1` [Example 65], in experiment [1], the IC50 was above 10000 nM.
Take `C#CCNC(=O)C(=O)NCc1ccccc1C(=O)NC1(c2cc(-c3c(C)cnn3C)cc(C(F)(F)F)c2)CC1` [Example 475]: the half-inhibitory concentration (IC50) in experiment [1] was 100 to 1000 nM.
The same measure, in the same setting: the same measure for `NC(=O)N1CC[C@H]1CNC(=O)C(=O)NCc1ccccc1C(=O)NC1(c2cccc3ccccc23)CC1` [Example 501]: 1000 to 10000 nM.
`N#CCNC(=O)C(=O)NCc1ccccc1C(=O)NC1(c2cc(-c3ccccc3)cc(C(F)(F)F)c2)CC1` [Example 468]: the IC50 in experiment [1] was 100 to 1000 nM.
As to `N#CN1CC[C@H](CNC(=O)C(=O)NCc2ccccc2C(=O)NC2(c3cccc4ccccc34)CC2)C1` [Example 502], the IC50 in experiment [1] fell in the range of 100 to 1000 nM.
As for `N#CCNC(=O)C(=O)NCc1ccccc1C(=O)NC1(c2cc(Oc3cccc(C(F)(F)F)c3)cc(C(F)(F)F)c2)CC1` [Example 66], the IC50 in experiment [1] is above 10000 nM.
As for `N#CCNC(=O)C(=O)NCc1ccccc1C(=O)NC1(c2cc(C(F)(F)F)ccc2Cl)CC1` [Example 377], the half-inhibitory concentration (IC50) in experiment [1] lay in the range of 100 to 1000 nM.

A word on the EC50: it is the concentration needed to bring the measured effect to its halfway point. In general, IC50 refers to the midpoint of a concentration-inhibition curve.
